We go through 15 compounds from ChEMBL document CHEMBL1141989, “Amino acid conjugates as kappa opioid receptor agonists” (Bioorg Med Chem Lett, 2005).

One may read the pKi as −log10 of the Ki, conventionally taken in molar units. A lower pKi goes with a large Ki. What is called pEC50 is the negative decadic logarithm of the EC50, by convention in mol/L. Higher therefore signals a low EC50.

For test [1], the target named is T1, Kappa-type opioid receptor (Homo sapiens, UniProt P41145). Put plainly: In vitro binding affinity for human kappa opioid receptor was determined by using [3H]diprenorphine as radioligand.
T1 sequence (P41145 whole entry): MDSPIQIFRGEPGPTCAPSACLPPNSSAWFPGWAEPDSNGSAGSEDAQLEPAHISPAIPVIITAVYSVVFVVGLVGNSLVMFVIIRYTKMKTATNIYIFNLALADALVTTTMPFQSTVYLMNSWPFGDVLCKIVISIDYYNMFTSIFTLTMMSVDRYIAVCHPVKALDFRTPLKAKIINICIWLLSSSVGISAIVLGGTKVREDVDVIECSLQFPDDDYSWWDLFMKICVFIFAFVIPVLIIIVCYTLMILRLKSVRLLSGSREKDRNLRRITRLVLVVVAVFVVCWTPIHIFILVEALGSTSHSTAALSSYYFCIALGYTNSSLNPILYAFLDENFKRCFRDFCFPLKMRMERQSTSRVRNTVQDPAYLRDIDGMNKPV
Test [2] concerns the target Opioid receptors; mu & kappa (Homo sapiens) (UniProt P41145+P35372). Put plainly: Selectivity of binding affinity of human kappa opioid receptor over human mu opioid receptor. The test is classed as protein assay.
In test [3] the target is T1, Kappa-type opioid receptor. Kind of test: In vitro effective concentration towards human kappa opioid receptor was determined using [35S]-GTP-gamma S as radioligand; Not determined. The test is classed as functional. For orientation: GTPγS is a poorly hydrolysed GTP analogue; its binding reports G protein activation.

pEC50, pKi: −log10 of the molar value. Several values for one entry are separate records, joined by “and”; a condition that tells them apart may be missing. Identical values can stand only once. Some results are limits rather than exact numbers.

Opioid receptors; mu & kappa (Homo sapiens), sequence (P35372 whole entry, looked up): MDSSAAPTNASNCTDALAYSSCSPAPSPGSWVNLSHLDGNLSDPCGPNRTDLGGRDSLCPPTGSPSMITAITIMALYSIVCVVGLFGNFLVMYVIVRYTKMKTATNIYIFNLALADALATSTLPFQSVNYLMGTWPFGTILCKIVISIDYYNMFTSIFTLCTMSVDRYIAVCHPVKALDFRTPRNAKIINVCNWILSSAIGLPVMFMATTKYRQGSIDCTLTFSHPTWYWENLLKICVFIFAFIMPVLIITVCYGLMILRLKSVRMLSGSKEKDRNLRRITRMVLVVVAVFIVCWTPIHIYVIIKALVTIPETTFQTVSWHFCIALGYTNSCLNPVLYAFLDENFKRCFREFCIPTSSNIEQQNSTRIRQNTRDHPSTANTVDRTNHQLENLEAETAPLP
Opioid receptors; mu & kappa (Homo sapiens), sequence (P41145 whole entry, looked up): as the sequence (P41145 whole entry) above

Turning to `CN(C(=O)[C@@H](NC(=O)c1ccccc1)c1ccccc1)[C@H](CN1CCCC1)c1ccccc1`, the pKi in test [1] was 7.00.

As for `CN(C(=O)[C@@H](NC(=O)OCc1ccccc1)c1ccccc1)[C@H](CN1CCCC1)c1ccccc1`, the pKi in test [1] was 6.86. Besides, the Selectivity in test [2] was 22 and 27.

`CN(C(=O)CNC(=O)OCc1ccccc1)[C@H](CN1CCCC1)c1ccccc1` had a negative-log Ki (pKi) in test [1] of 7.08.

On to `CN(C(=O)CNC(=O)c1ccc(Cl)c(Cl)c1)[C@H](CN1CC[C@@H](O)C1)c1ccccc1`, for which the negative-log Ki (pKi) in test [1] is 9.08. The compound also showed a negative logarithm of the EC50 (pEC50) in test [3] of 9.12.

`CN(C(=O)CNC(=O)c1ccc2c(c1)no[n+]2[O-])[C@H](CN1CCCC1)c1ccccc1` showed a pKi in test [1] of 8.34. Besides, the negative-log EC50 (pEC50) in test [3] is 8.36.

`CN(C(=O)C(NC=O)c1ccccc1)[C@H](CN1CCCC1)c1ccccc1` (mixture of isomers) had a negative logarithm of the Ki (pKi) in test [1] of 6.59. Moreover, the Selectivity in test [2] is 146 and > 100.

In turn, `COc1ccc(C(=O)NCC(=O)N(C)[C@H](CN2CC[C@@H](O)C2)c2ccccc2)cc1` gave a pKi in test [1] of 7.32. Also, in test [2], the Selectivity was 39 and > 100.

`CN(CC(=O)N(C)[C@H](CN1CC[C@@H](O)C1)c1ccccc1)C(=O)c1ccc(Cl)c(Cl)c1` gave a negative logarithm of the Ki (pKi) in test [1] of 7.70. Further, the negative-log EC50 (pEC50) in test [3] is 7.38.

In test [1], `CN(C(=O)CNC(=O)c1ccccc1)[C@H](CN1CCCC1)c1ccccc1` had a pKi of 8.17. Moreover, the Selectivity in test [2] was 61 and 50. This compound had a negative logarithm of the EC50 (pEC50) in test [3] of 8.41.

Regarding `CN(C(=O)[C@H](Cc1ccccc1)NC(=O)OCc1ccccc1)[C@H](CN1CCCC1)c1ccccc1`, the negative-log Ki (pKi) in test [1] is 6.82. For the same compound, the Selectivity in test [2] was 13 and 5.

On to `CN(C(=O)CNC(=O)Cc1ccccc1)[C@H](CN1CCCC1)c1ccccc1`, for which, in test [1], the pKi was 7.79. For the same compound, in test [2], the Selectivity was > 100 and 49.

`CN(C(=O)CNC(=O)c1ccc(Cl)c(Cl)c1)[C@H](CN1CCCC1)c1ccccc1` gave a pKi in test [1] of 8.44. The Selectivity in test [2] is 34 and 24. This compound also gave a pEC50 in test [3] of 8.65.

The compound `COc1ccccc1C(=O)NCC(=O)N(C)[C@H](CN1CC[C@@H](O)C1)c1ccccc1` gave a pKi in test [1] of 8.70. The compound further gave a negative-log EC50 (pEC50) in test [3] of 8.70.

For the compound `CN(C(=O)[C@H](NC(=O)OCc1ccccc1)c1ccccc1)[C@H](CN1CCCC1)c1ccccc1`, in test [1], the pKi is 6.07.

In test [1], `COC(=O)N[C@H](C(=O)N(C)[C@H](CN1CCCC1)c1ccccc1)c1ccccc1` gave a pKi of 6.75. The same compound came in with a Selectivity in test [2] greater than 100.
